Source: ChEMBL document CHEMBL1142761, “SAR studies of 6-aryl-1,3-dihydrobenzimidazol-2-ones as progesterone receptor antagonists” (Bioorg Med Chem Lett, 2005)

biological target: T1, Progesterone receptor (Homo sapiens, UniProt P06401); experiment: Progesterone receptor antagonist activity in human T47D breast carcinoma cell alkaline phosphatase assay
T1 sequence (P06401 whole entry): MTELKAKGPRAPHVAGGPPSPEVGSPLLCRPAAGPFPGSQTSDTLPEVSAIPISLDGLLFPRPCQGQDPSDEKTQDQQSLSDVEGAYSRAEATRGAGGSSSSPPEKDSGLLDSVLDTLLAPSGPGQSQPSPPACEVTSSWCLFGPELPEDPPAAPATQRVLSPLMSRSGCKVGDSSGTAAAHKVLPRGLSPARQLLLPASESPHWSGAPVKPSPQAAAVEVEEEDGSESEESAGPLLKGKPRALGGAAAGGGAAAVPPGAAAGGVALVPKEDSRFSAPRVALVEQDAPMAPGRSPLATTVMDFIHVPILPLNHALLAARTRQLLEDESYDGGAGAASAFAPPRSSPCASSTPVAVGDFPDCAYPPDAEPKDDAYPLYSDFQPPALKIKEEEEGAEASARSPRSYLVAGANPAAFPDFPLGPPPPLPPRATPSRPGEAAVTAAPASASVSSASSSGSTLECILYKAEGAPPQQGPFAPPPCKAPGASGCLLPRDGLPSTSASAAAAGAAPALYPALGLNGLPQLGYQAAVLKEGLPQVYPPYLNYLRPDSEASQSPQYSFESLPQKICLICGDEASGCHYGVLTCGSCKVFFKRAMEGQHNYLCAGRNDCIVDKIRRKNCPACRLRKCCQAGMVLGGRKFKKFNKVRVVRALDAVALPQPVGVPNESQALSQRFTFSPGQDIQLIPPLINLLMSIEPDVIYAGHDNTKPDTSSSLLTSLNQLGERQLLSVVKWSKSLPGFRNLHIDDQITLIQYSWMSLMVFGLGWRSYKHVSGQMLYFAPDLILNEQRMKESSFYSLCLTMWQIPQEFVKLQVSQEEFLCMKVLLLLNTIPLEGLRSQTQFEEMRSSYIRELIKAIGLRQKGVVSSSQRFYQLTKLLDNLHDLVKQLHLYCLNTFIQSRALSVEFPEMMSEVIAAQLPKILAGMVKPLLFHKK

| Compound | IC50 [nM] |
| --- | --- |
| CC(C)n1c(O)nc2ccc(-c3ccc(F)c(C#N)c3)cc21 | 60.3 |
| CC(C)n1c(O)nc2ccc(-c3ccc(C#N)n3C)cc21 | 4.7 |
| CC(C)n1c(=O)[nH]c2ccc(-c3ccc(F)c(Cl)c3)cc21 | 106 |
| CC(C)n1c(O)nc2ccc(-c3ccccc3F)cc21 | 412 |
| CC(C)n1c(O)nc2ccc(-c3ccc(F)cc3)cc21 | 295 |
| CC(C)n1c(O)nc2ccc(-c3ccc(F)c(F)c3)cc21 | 207 |
| Cc1cc(C#N)sc1-c1ccc2nc(O)n(C(C)C)c2c1 | 24.8 |
| Oc1nc2ccc(-c3ccc(F)c(Cl)c3)cc2n1C1CCCC1 | 135 |

Now from value to molecule:

| IC50 [nM] | Compound |
| --- | --- |
| 5.7 | N#Cc1cc(F)cc(-c2ccc3[nH]c(=O)n(C4CCCC4)c3c2)c1 |
| 175 | O=c1[nH]c2ccc(-c3ccc(F)c(F)c3)cc2n1C1CCC1 |
| 5.6 | Cn1c(C#N)ccc1-c1ccc2[nH]c(=O)n(C3CCCC3)c2c1 |
| 96.8 | O=c1[nH]c2ccc(-c3ccc(F)c(F)c3)cc2n1C1CCCC1 |
| 3000 | N#Cc1cc(F)cc(-c2ccc3[nH]c(=O)n(-c4cccc(Cl)c4)c3c2)c1 |
| 77.9 | CC(C)n1c(=O)[nH]c2ccc(-c3cccc(F)c3)cc21 |
| 83.6 | N#Cc1cc(F)cc(-c2ccc3[nH]c(=O)n(C4CCCCC4)c3c2)c1 |
| 3.3 | N#Cc1cc(F)cc(-c2ccc3[nH]c(=O)n(C4CCC4)c3c2)c1 |
| 100 | CC(C)n1c(=O)[nH]c2ccc(-c3cc(Cl)cc(Cl)c3)cc21 |
| 29.6 | CC(C)n1c(O)nc2ccc(-c3cc(F)cc(C#N)c3)cc21 |
| 137 | N#Cc1cc(F)cc(-c2ccc3[nH]c(=O)n(-c4ccccc4)c3c2)c1 |
| 10.9 | Cn1c(C#N)ccc1-c1ccc2[nH]c(=O)n(C3CCC3)c2c1 |
| 106 | Oc1nc2ccc(-c3ccc(F)c(Cl)c3)cc2n1C1CCC1 |

biological target: T1, Progesterone receptor; experiment: Progesterone receptor agonist activity in human T47D breast carcinoma cell alkaline phosphatase assay; type: functional, cell-based

| IC50 [nM] | Compound |
| --- | --- |
| 29 | CCC(CC)n1c(=O)[nH]c2ccc(-c3cc(F)cc(C#N)c3)cc21 |
| 426 | CCC(CC)n1c(=O)[nH]c2ccc(-c3ccc(F)c(Cl)c3)cc21 |
| 11.7 | CCC(CC)n1c(=O)[nH]c2ccc(-c3ccc(C#N)n3C)cc21 |
